Here are results for 19 compounds from patent US9353090B2, “Heterocyclic carboxylic acids as activators of soluble guanylate cyclase” (Boehringer Ingelheim International GmbH, priority 2014, dated 2016).

Data set [1] concerns the target human soluble guanylate cyclase alpha 1 and beta 1 subunits (sGC) (Homo sapiens (Human), UniProt Q02108+Q02153). Briefly: sGC cellular activator assay (cGMP, HTRF), in the presence and absence of 50% human serum. The following applies: CHO cells stably expressing human sGC alpha 1/beta 1, preincubated with 40 microM ODQ; cGMP by HTRF; Table 2 does not state whether with or without 50% human serum. It is filed as cell-based. As to the method:
The sGC cellular activator assay is performed in the presence and absence of 50% human serum (HS) using Chinese hamster ovary cells that have been stably transfected to express the human soluble guanylate cyclase alpha 1 and beta 1 subunits (sGC). Cells are preincubated with 40 microM 1H-[1,2,4]oxadiazolo[4,3-a]quinoxalin-1-one (ODQ), an sGC inhibitor, for one h in buffer containing 0.1% bovine serum albumin and 3-isobutyl-1-methylxanthine (IBMX). Concentration response curves are prepared for test compounds in DMSO. An intermediate dilution of the compounds is performed in either buffer containing IBMX or type AB HS containing IBMX. Diluted compounds are added to cells and they are incubated at room temperature for thirty min. cGMP is measured using a CisBio homogeneous time resolved fluorescence kit and the EC50 is calculated for each compound.
Representative compounds of the present invention were tested for activity the above assay. Preferred compounds have an EC50 of <1,000 nM in the above assay and more preferred compounds have an EC50<200 nM.
For orientation: TR-FRET usually uses a lanthanide donor and a delayed reading to cut background.

Data set [2] can be described thus: Human liver microsome (HLM) metabolic stability assay. It is filed as in vitro ADME. The following applies: human liver microsomes. As to the method:
The 5 time point, high-throughput human liver microsome (HLM) metabolic stability assay is designed to determine in vitro compound metabolism. Compounds are incubated with HLMs at a concentration of 1 uM, at 37° C., for a total of 60 min. The percent of compound remaining at 5, 15, 30, and 60 min is used to calculate the t1/2 (min), CLint (mL/min/kg), CLh (mL/min/kg), and % Qh. The assay is based on a 96-well format and can accommodate up to 92 compounds per plate (n=1).
Using the 96-well multi-channel head, the Biomek FX, equipped with a Peltier heating block/shaker, is programmed to accomplish the following steps: • 1. Pipette 175 uL of 1.15 mg/mL microsomes into each of the 96 conical inserts (Analytical Sales and Products, catalog number 96PL05) that fit into the plate of the Peltier heating block/shaker (the incubation plate) • 2. Add 5 uL of compounds from the assay plate to the microsomes and shake the mixture at 600 rpm at 42.1° C. for 10 min (a setting of 42.1° C. on the Peltier is required for the samples to incubate at 37° C.) • 3. After 10 min, prompt the user to add the NADPH plate to the deck and add 20 uL from the NADPH plate to the incubation plate to start the reaction • 4. Add 215 uL of 100%, cold acetonitrile containing an internal standard(s) to a 0 minute, 5 minute, 15 minute, 30 minute, and 60 minute “quench” plate • 5. At 0 min, 5 min, 15 min, 30 min, and 60 min into the incubation, aspirate 12 uL from the incubation mixture and add it to the quench solution to stop the reaction • 6. Add 185 uL HPLC grade water to each well of the 0, 5, 15, 30 and 60 minute quench plates to dilute compounds to the appropriate concentration for the mass spectrometer
After all time points are collected, the quench plates are sealed with 96-well pierceable plate mats or heat sealing foil and centrifuged at 3000 rpm for 15 min to pellet the microsomes.
The plates are analyzed using LC/MS/MS with electron spray ionization (ESI) and the previously determined MRM transitions. The LC method includes the following parameters:
Using an Excel template in Activitybase, the peak areas corresponding to 5, 15, 30 and 60 min are compared to the peak area at 0 min to calculate the percent of remaining compound using the following equation:
Percent compound remaining=(AUC at Time t min/AUC at Time 0 min)×100 where t=0, 5, 15, 30 or 60 min.
Time (min) is plotted against the natural logarithm (Ln) of the percent compound remaining to determine the slope. The slope is used to calculate t1/2 (min) using the equation, t1/2=0.693/slope.
Clh, Hepatic clearance • Hepatic flow*f(u)*Clint/(hepatic flow+f(u)*Clint)
Qh, % Hepatic blood flow • (Clh/Hepatic flow)*100
Preferred compounds have % Qh values of less than 24.

The next data set in a line: physchem. As to conditions: kinetic from dmso stock.
Where [3] appears, read: pH 2.2, aqueous buffer, Solubility (pH 2.2).
[4] abbreviates: pH 4.5, aqueous buffer, Solubility (pH 4.5).
Where [5] appears, read: pH 6.8, aqueous buffer, Solubility (pH 6.8).

≈ marks a conversion by molar mass, not a printed value.

human soluble guanylate cyclase alpha 1 and beta 1 subunits (sGC), sequence (Q02108 whole entry partner): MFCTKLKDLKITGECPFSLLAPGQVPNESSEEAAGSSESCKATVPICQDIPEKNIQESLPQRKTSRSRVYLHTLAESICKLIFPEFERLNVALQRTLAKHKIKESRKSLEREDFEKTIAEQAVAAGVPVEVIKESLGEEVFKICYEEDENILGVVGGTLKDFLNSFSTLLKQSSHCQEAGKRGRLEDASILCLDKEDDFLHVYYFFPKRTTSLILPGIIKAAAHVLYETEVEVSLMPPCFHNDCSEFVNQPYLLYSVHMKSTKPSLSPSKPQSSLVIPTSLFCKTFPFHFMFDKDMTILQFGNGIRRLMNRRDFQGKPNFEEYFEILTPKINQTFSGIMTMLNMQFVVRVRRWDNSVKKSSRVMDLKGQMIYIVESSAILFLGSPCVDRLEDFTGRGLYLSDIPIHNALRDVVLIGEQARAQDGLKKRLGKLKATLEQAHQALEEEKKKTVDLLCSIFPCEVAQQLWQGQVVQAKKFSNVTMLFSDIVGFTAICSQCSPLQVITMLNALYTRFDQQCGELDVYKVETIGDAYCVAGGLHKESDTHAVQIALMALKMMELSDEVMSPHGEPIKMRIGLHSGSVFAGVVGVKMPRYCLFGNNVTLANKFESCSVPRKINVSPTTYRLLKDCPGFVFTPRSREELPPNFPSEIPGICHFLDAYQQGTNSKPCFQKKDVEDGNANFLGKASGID
human soluble guanylate cyclase alpha 1 and beta 1 subunits (sGC), sequence (Q02153 whole entry): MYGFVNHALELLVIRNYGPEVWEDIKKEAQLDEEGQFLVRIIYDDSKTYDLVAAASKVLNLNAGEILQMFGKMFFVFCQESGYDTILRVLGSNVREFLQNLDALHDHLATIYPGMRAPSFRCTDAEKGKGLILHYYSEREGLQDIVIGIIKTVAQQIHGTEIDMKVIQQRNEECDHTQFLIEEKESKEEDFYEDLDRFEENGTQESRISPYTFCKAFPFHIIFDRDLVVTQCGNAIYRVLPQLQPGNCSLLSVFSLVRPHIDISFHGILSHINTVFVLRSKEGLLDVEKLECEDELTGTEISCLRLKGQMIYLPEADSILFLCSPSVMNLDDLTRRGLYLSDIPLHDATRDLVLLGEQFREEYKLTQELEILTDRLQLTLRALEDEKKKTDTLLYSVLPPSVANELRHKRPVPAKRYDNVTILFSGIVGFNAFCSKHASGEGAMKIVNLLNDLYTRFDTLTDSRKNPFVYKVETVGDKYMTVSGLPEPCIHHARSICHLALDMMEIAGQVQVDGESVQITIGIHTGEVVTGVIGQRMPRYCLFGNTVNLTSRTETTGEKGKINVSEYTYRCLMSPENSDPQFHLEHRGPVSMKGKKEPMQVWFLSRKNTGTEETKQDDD

In general, EC50 refers to the concentration giving half of the maximal effect. The low end stands for a more potent agent, the high end for a less potent agent. In general, solubility refers to the concentration that dissolves in the medium under given conditions. Take `Cc1cccc(-c2cccc(N3C[C@@H]4C[C@]4(C(=O)O)C3)n2)c1OCc1cc(C#N)c2c(c1)CCN(C1CCOCC1)C2` [Compound 30]: it took 0.008 µM to reach a half-maximal effect in data set [1] (EC50). Besides, in data set [2], the “Metabolic stability (Qh %), % hepatic blood flow” value (from here on “Metabolic stability (Qh %)”) was <24%. In addition, the solubility at 24 h in “physchem” (setting [3]) is 0.11 mg/mL (≈ 195 µM); in “physchem” (setting [4]) it was 0.084 mg/mL (≈ 149 µM); in “physchem” (setting [5]) it was 0.062 mg/mL (≈ 110 µM).
The corresponding values for `Cc1cccc(-c2cccc(N3C[C@@H]4C[C@]4(C(=O)O)C3)n2)c1OCc1ccc2c(c1)CCN(C1CCOCC1)CC2` [Compound 31] are 0.007 µM, <24%, 0.11 mg/mL (≈ 199 µM), 0.095 mg/mL (≈ 172 µM) and 0.067 mg/mL (≈ 121 µM).
In turn, `Cc1cccc(-c2cccc(N3C[C@@H]4C[C@]4(C(=O)O)C3)n2)c1OCc1ccc2c(c1)CCN(C1COC1)CC2` [Compound 32] yielded an EC50 in data set [1] of 0.004 µM. In data set [2], the “Metabolic stability (Qh %)” value is <24%. The solubility at 24 h in the data set “physchem” (setting [3]) worked out at 0.12 mg/mL (≈ 228 µM); in the data set “physchem” (setting [4]), 0.088 mg/mL (≈ 167 µM); in “physchem” (setting [5]), 0.05 mg/mL (≈ 95.1 µM).
For `Cc1cccc(-c2cccc(N3C[C@@H]4C[C@]4(C(=O)O)C3)n2)c1OCc1ccc2c(c1C)CCN(C1CCOCC1)CC2` [Compound 33], in that order: 0.004 µM, <24%, 0.11 mg/mL (≈ 194 µM), 0.093 mg/mL (≈ 164 µM) and 0.068 mg/mL (≈ 120 µM).
The compound `Cc1cccc(-c2cccc(N3C[C@@H]4C[C@]4(C(=O)O)C3)n2)c1OCc1ccc2c(c1C)CCN(C1COC1)CC2` [Compound 34] gave an EC50 in data set [1] of 0.002 µM. For the same compound, in data set [2], the “Metabolic stability (Qh %)” value is recorded as <24%. In addition, the solubility at 24 h in the data set “physchem” (setting [3]) was 0.11 mg/mL (≈ 204 µM); in the data set “physchem” (setting [4]) it was 0.097 mg/mL (≈ 180 µM); in the data set “physchem” (setting [5]), 0.067 mg/mL (≈ 124 µM).
Compound `Cc1ccc(OCc2ccc3c(c2C)CCN(C2CCOCC2)C3)c(-c2cccc(N3C[C@@H]4C[C@]4(C(=O)O)C3)n2)c1` [Compound 35] returned an EC50 in data set [1] of 0.045 µM. In addition, in data set [2], the “Metabolic stability (Qh %)” value is <24%. For the same compound, the solubility at 24 h came to 0.1 mg/mL (≈ 181 µM) in the data set “physchem” (setting [3]), 0.093 mg/mL (≈ 168 µM) in the data set “physchem” (setting [4]) and 0.0064 mg/mL (≈ 11.6 µM) in the data set “physchem” (setting [5]).
The corresponding values for `Cc1ccc(OCc2ccc3c(c2C)CCN(C2COC2)C3)c(-c2cccc(N3C[C@@H]4C[C@]4(C(=O)O)C3)n2)c1` [Compound 36] are 0.12 µM, <24%, 0.1 mg/mL (≈ 190 µM), 0.084 mg/mL (≈ 160 µM) and 0.048 mg/mL (≈ 91.3 µM).
In data set [1], `Cc1ccc(OCc2cc(C)c3c(c2)CCN(C2CCOCC2)C3)c(-c2cccc(N3C[C@@H]4C[C@]4(C(=O)O)C3)n2)c1` [Compound 37] came in with an EC50 of 0.299 µM. For the same compound, in data set [2], the “Metabolic stability (Qh %)” value is given as <24%. In addition, the values for the solubility at 24 h in “physchem” (setting [3]), in the data set “physchem” (setting [4]) and in the data set “physchem” (setting [5]) were 0.1 mg/mL (≈ 181 µM), 0.093 mg/mL (≈ 168 µM) and 0.05 mg/mL (≈ 90.3 µM), respectively.
The corresponding values for `Cc1ccc(OCc2cc(C)c3c(c2)CCN(C2COC2)C3)c(-c2cccc(N3C[C@@H]4C[C@]4(C(=O)O)C3)n2)c1` [Compound 38] are 0.354 µM, <24%, 0.1 mg/mL (≈ 190 µM), 0.085 mg/mL (≈ 162 µM) and 0.059 mg/mL (≈ 112 µM).
For `Cc1ccc(OCc2cc(C)c3c(c2C)CCN(C2CCOCC2)C3)c(-c2cccc(N3C[C@@H]4C[C@]4(C(=O)O)C3)n2)c1` [Compound 39], in that order: 0.05 µM, <24%, 0.1 mg/mL (≈ 176 µM), 0.091 mg/mL (≈ 160 µM) and 0.045 mg/mL (≈ 79.3 µM).
In turn, `Cc1ccc(OCc2cc(C)c3c(c2C)CCN(C2COC2)C3)c(-c2cccc(N3C[C@@H]4C[C@]4(C(=O)O)C3)n2)c1` [Compound 40] displayed an EC50 in data set [1] of 0.038 µM. Also, the “Metabolic stability (Qh %)” value in data set [2] is recorded as <24%. The solubility at 24 h in the data set “physchem” (setting [3]) worked out at 0.098 mg/mL (≈ 182 µM); in the data set “physchem” (setting [4]), 0.079 mg/mL (≈ 146 µM); in “physchem” (setting [5]) it was 0.052 mg/mL (≈ 96.4 µM).
Consider `Cc1ccc(OCc2ccc3c(c2C)CCN(C2CCOCC2)CC3)c(-c2cccc(N3C[C@@H]4C[C@]4(C(=O)O)C3)n2)c1` [Compound 41], for which the EC50 in data set [1] was 0.016 µM. Besides, in data set [2], the “Metabolic stability (Qh %)” value is <24%. The solubility at 24 h in the data set “physchem” (setting [3]) stood at 0.1 mg/mL (≈ 176 µM); in “physchem” (setting [4]) it was 0.084 mg/mL (≈ 148 µM); in the data set “physchem” (setting [5]) it was 0.045 mg/mL (≈ 79.3 µM).
For `Cc1ccc(OCc2ccc3c(c2C)CCN(C2COC2)CC3)c(-c2cccc(N3C[C@@H]4C[C@]4(C(=O)O)C3)n2)c1` [Compound 42], in that order: 0.05 µM, 76%, 0.096 mg/mL (≈ 178 µM), 0.087 mg/mL (≈ 161 µM) and 0.058 mg/mL (≈ 107 µM).
`COC[C@H]1N(c2cccc(-c3cccc(C)c3OCc3ccc4c(c3)CCN(C3COC3)C4)n2)C[C@@H]2C[C@@]21C(=O)O` [Compound 43] registered an EC50 in data set [1] of 0.063 µM. For the same compound, in data set [2], the “Metabolic stability (Qh %)” value was <24%. Also, the figures for the solubility at 24 h in “physchem” (setting [3]), in the data set “physchem” (setting [4]) and in the data set “physchem” (setting [5]) were 0.14 mg/mL (≈ 252 µM), 0.12 mg/mL (≈ 216 µM) and 0.097 mg/mL (≈ 175 µM), respectively.
For the compound `COC[C@H]1N(c2cccc(-c3cccc(C)c3OCc3ccc4c(c3)CCN(C3CCOCC3)C4)n2)C[C@@H]2C[C@@]21C(=O)O` [Compound 44], a half-maximal response in data set [1] (EC50) required 0.058 µM. For the same compound, the “Metabolic stability (Qh %)” value in data set [2] was <24%. In addition, the solubility at 24 h in “physchem” (setting [3]) came out at 0.13 mg/mL (≈ 223 µM); in the data set “physchem” (setting [4]), 0.11 mg/mL (≈ 188 µM); in “physchem” (setting [5]) it was 0.086 mg/mL (≈ 147 µM).
The corresponding values for `COC[C@H]1N(c2cccc(-c3cccc(C)c3OCc3ccc4c(c3C)CCN(C3CCOCC3)C4)n2)C[C@@H]2C[C@@]21C(=O)O` [Compound 46] are 0.018 µM, <24%, 0.11 mg/mL (≈ 184 µM), 0.096 mg/mL (≈ 161 µM) and 0.077 mg/mL (≈ 129 µM).
For `COC[C@H]1N(c2cccc(-c3cccc(C)c3OCc3ccc4c(c3C)CCN(C3COC3)C4)n2)C[C@@H]2C[C@@]21C(=O)O` [Compound 47], in that order: 0.017 µM, <24%, 0.11 mg/mL (≈ 193 µM), 0.095 mg/mL (≈ 167 µM) and 0.084 mg/mL (≈ 147 µM).
In data set [1], `COC[C@H]1N(c2cccc(-c3cccc(C)c3OCc3cc(C)c4c(c3)CCN(C3CCOCC3)C4)n2)C[C@@H]2C[C@@]21C(=O)O` [Compound 48] showed an EC50 of 0.018 µM. The “Metabolic stability (Qh %)” value in data set [2] was <24%. Also, the solubility at 24 h turned out to be 0.11 mg/mL (≈ 184 µM) in “physchem” (setting [3]), 0.069 mg/mL (≈ 115 µM) in “physchem” (setting [4]) and 0.083 mg/mL (≈ 139 µM) in “physchem” (setting [5]).
As to `COC[C@H]1N(c2cccc(-c3cccc(C)c3OCc3cc(C)c4c(c3)CCN(C3COC3)C4)n2)C[C@@H]2C[C@@]21C(=O)O` [Compound 49], it took 0.012 µM to reach a half-maximal effect in data set [1] (EC50). Besides, the “Metabolic stability (Qh %)” value in data set [2] was <24%. Moreover, the solubility at 24 h in “physchem” (setting [3]) is 0.12 mg/mL (≈ 211 µM); in “physchem” (setting [4]) it was 0.095 mg/mL (≈ 167 µM); in “physchem” (setting [5]) it was 0.082 mg/mL (≈ 144 µM).
